Assay [1] relates to genotype A, “Long” strain RSV. Put plainly: RSV-A assay (CPE, ATPlite readout in Hep-2 cells). In kind it is cell-based, Human respiratory syncytial virus. To be noted: human respiratory syncytial virus, activity class. The text has this: Hep-2 cells, (originally derived from tumors grown in irradiated-cortisonised weanling rats that had been injected with epidermoid carcinoma tissue from the larynx of a person, but later found to be indistinguishable from HeLa cells by PCR DNA analysis), were used for the culturing of genotype A, “Long” strain RSV. Flasks were inoculated with RSV and viral stocks were collected once cytopathic effect (CPE) was greater than 90%. Viral stocks in 25% sucrose media were snap frozen using liquid nitrogen to increase viral stability. Viral stock titers were quantified by tissue culture infectious dose 50% (TCID50) using 8,000 cells per well and 3-fold viral dilutions across a 96-well plate, cultured for 4 days. Viral stock titers were also quantified by a plaque forming unit assay, as described elsewhere.
Following extensive parameter testing, the final assay is run as follows: Hep-2 cells are seeded into the inner 60 wells of a 96-well plate at 8,000 cells per well in a volume of 50 μL using Growth Media (DMEM without phenol red, 1% L-Glut, 1% Penn/Strep, 1% nonessential amino acids, 10% heat-inactivated FBS). 2-fold serial dilutions of control and test compounds are added to the wells in duplicate in a total volume of 25 μL. Viral stock is then added to the wells at a multiplicity of infection (MOI) of 0.1 in a volume of 25 μL, bringing the total volume of each well to 100 μL. The MOI is calculated using the PFU/mL, or TCID50 if unavailable. Each 96-well plate has a control column of 6 wells with cells and virus but no compound (negative control, max CPE), a column with cells but no compound or virus (positive control, minimum CPE), and a column with no cells or virus or compound (background plate/reagent control). The control wells with cells but no virus are given an additional 25 μL of growth media containing an equal quantity of sucrose as those wells receiving the viral stock in order to keep consistent in media and volume conditions. The outer wells of the plate are filled with 125 μL of moat media (DMEM, 1% Penn/Strep) to act as a thermal and evaporative moat around the test wells. Following a 5-day incubation period, the plates are read using ATPlite (50 uL added per well), which quantifies the amount of ATP (a measure of cell health) present in each well. Assay plates are read using the Envision luminometer. […] EC50 ranges are as follows: A<0.2 μM; B>0.2 μM.
In general terms: Cellular ATP, detected with luciferase, serves as a proxy for viable cell number.

Assay [2] has as its system HMPV clinical isolate A2 strain TN 94-49. Put plainly: HMPV antiviral assay, Method 1 (LLC-MK2 cells, ATP-Lite). The assay is classed as cell-based. Conditions: human metapneumovirus, hMPV A2 TN/94-49, LLC-MK2 cells. The procedure, abridged:
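EC50 derived by four-parameter logistic fit of percent cell health, measured as ATP-Lite luminescence after 7 days at 37° C, 5% CO2. Compounds tested as 10-point 2.5-fold dilutions starting at 2 μM against TN 94-49 virus (MOI 0.005) in LLC-MK2 cells seeded at 5,000/well, infection medium containing 2 μg/mL TPCK-trypsin, serum-free.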

For assay [3] the test system is unchanged. Put plainly: HMPV antiviral assay, Method 2 (LLC-MK2 cells with CP-100-356, ATP-Lite). In kind it is cell-based. To be noted: human metapneumovirus; hMPV A2 TN/94-49, LLC-MK2 cells with CP-100-356, Method 2. In outline:
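EC50 comes from a four-parameter fit of percent cell viability (ATP-Lite, normalized to virus-only and cell-only wells) after 7 days at 37 °C. Infection used HMPV A2 TN 94-49 at MOI 0.16 in LLC-MK2 cells, with 2 μM P-gp inhibitor CP-100-356 and 2 μg/mL TPCK-trypsin final; dose range 200 nM top, 2.5-fold, 10 points, duplicate.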

Results on 19 compounds are retold here after patent US20240368174A1, “Antiviral Heterocyclic Compounds” (Enanta Pharmaceuticals, Inc., priority 2023, published 2024).

`COc1cc(C(=O)NC[C@](O)(c2cc3c(c(-n4ccc5c6c(ccc54)OC(F)(F)O6)n2)OC[C@]3(C)C(N)=O)C2CC2)cc2cn(C3CC3)nc12` [Example 855] gave an EC50 in assay [1] of less than 200 nM. The same measure, in the same setting: then `COc1cc(C(=O)NC[C@](O)(c2cc3c(c(-c4cncc(Cl)c4Cl)n2)OC[C@]3(C)C(N)=O)C2CC2)cc2cn(C3CC3)nc12` [Example 740], with less than 200 nM; and `COc1cc(C(=O)NC[C@](O)(c2cc3c(c(-n4ccc5c(F)cccc54)n2)OC[C@]3(C)C(N)=O)C2CC2)cc2cn(C3CC3)nc12` [Example 452], with less than 200 nM.

In turn, `COc1cc(C(=O)NC[C@](O)(c2cc3c(c(-c4cc(C(F)(F)F)ncc4F)n2)OC[C@]3(C)C(N)=O)C(F)(F)F)cc2cn(C(F)F)nc12` [Example 424] had an EC50 in assay [1] of less than 200 nM. In turn, `COc1cc(C(=O)NC[C@](O)(c2cc3c(c(-c4cc(C(F)(F)F)ncc4F)n2)OC[C@]3(C)C(N)=O)C2(F)CC2)cc2cn(C3(F)CC3)nc12` [Example 459] came in with a 50% effective concentration (EC50) in assay [1] of less than 200 nM. `COc1cc(C(=O)NC[C@](O)(c2cc3c(c(-c4ccnc5c4CCC5)n2)OC[C@]3(C)C(N)=O)C2CC2)cc2cn(C3CC3)nc12` [Example 421] gave an EC50 in assay [1] of less than 200 nM. For the compound `COc1cc(C(=O)NC[C@](O)(c2cc3c(c(-c4ccn(C)c(=O)c4Cl)n2)OC[C@]3(C)C(N)=O)C2CC2)cc2cn(C3CC3)nc12` [Example 423], the EC50 in assay [1] was more than 200 nM. On to `COc1cc(C(=O)NC[C@](O)(c2cc3c(c(-c4ccnc(C)c4Cl)n2)OC[C@]3(C)C(N)=O)C2CC2)cc2cc(C3CC3)nn12` [Example 673], for which the concentration for a half-maximal effect (EC50) in assay [1] is less than 200 nM.

In the case of `COc1cc(C(=O)NC[C@](O)(c2cc3c(c(-c4ccnc(C(F)(F)F)c4Cl)n2)OC[C@]3(C)C(N)=O)C2CC2)cc2cn(C3CC3)nc12` [Example 419], the EC50 in assay [1] was less than 200 nM. For `COc1cc(C(=O)NC[C@](O)(c2cc3c(c(-c4cc[nH]c(=O)c4Cl)n2)OC[C@]3(C)C(N)=O)C2CC2)cc2cn(C3CC3)nc12` [Example 436], in assay [1], the 50% effective concentration (EC50) was more than 200 nM. Still for that read-out and setting: then `COc1cc(C(=O)NC[C@](O)(c2cc3c(c(-c4cncc(Cl)c4Cl)n2)OC[C@]3(C)C(N)=O)C2CC2)cc2oc(C3CC3)nc12` [Example 774], with less than 200 nM. `COc1cc(C(=O)NC[C@](O)(c2cc3c(c(-n4ccc5ccccc54)n2)OC[C@]3(C)C(N)=O)C2CC2)cc2cn(C(F)F)nc12` [Example 445] had a 50% effective concentration (EC50) in assay [1] of less than 200 nM. `COc1cc(C(=O)NC[C@](O)(c2cc3c(c(-n4ccc5c(F)cccc54)n2)OC[C@]3(C)C(N)=O)C(F)(F)F)cc2cc(C3CC3)nn12` [Example 686]: the EC50 in assay [1] was less than 200 nM. On the same count and under the same terms, then `COc1cc(C(=O)NC[C@](O)(c2cc3c(c(-n4ccc5ccccc54)n2)OC[C@]3(C)C(N)=O)C2CC2)cc2cn(C3(F)CC3)nc12` [Example 741], with less than 200 nM; and `COc1cc(C(=O)NC[C@](O)(c2cc3c(c(-n4ncc5c(F)cccc54)n2)OC[C@]3(C)C(N)=O)C(F)(F)F)cc2cn(C3CC3)nc12` [Example 830], with less than 200 nM.

Take `COc1ccc([C@](O)(CNC(=O)c2cc(OC)c3nn(C4(F)CC4)cc3c2)c2cc3c(c(-c4cc(Cl)c(F)cc4F)n2)OC[C@]3(C)C(N)=O)cc1` [Example 166]: the figures for the half-maximal effective concentration (EC50) in assay [2] and in assay [3] were less than 500 nM and less than 200 nM, respectively. For `COc1cc(C(=O)NC[C@@](O)(c2cccc(F)c2)c2cc3c(c(-c4cc(Cl)c(F)cc4F)n2)OC[C@]3(C)C(N)=O)cc2cc(C3CC3)nn12` [Example 133], the figures for the concentration giving a half-maximal response (EC50) in assay [2] and in assay [3] were less than 500 nM and less than 200 nM, respectively. As to `COc1cc(C(=O)NC[C@@](O)(c2ccc(C(F)(F)F)cc2)c2cc3c(c(-c4cc(Cl)c(F)cc4F)n2)OC[C@]3(C)C(N)=O)cc2cn(C3CC3)nc12` [Example 130], the EC50 was more than 500 nM in assay [2] and more than 200 nM in assay [3]. On to `COc1cc(C(=O)NC[C@@](O)(c2ccccc2)c2cc3c(c(-c4ccc(F)c(Cl)c4Cl)n2)OC[C@]3(C)C(N)=O)cc2cc(C3CC3)nnc12` [Example 290], for which the EC50 in assay [2] is less than 500 nM; in assay [3], less than 200 nM.

Usually EC50 stands for the concentration giving half of the maximal effect. The low end stands for greater potency, the high end for weaker potency.
